Patent US10517862B2, “Fused heterocyclic compound derivative and application thereof” (NHWA PHARMA. CORPORATION, priority 2015, dated 2019)

Columns and labels:
[1] = test system: D2 receptor; assay: D2 receptor binding assay (3H-Spiperone, rat striatum membrane); details: for affinity with D2 (in words): summary of in vitro assay; for D2 Inhibition rate (%): test compound final concentration 10^−5 M, 3H-Spiperone, rat striatum membrane
Protocol: Preparation of D2 Membrane
Rats were decapitated on ice. […] The weight of the homogenized tubes were adjusted using a balance, and centrifugation was conducted. […] Centrifugation was conducted.
(§1) Materials for the Receptor Binding Assay

[2] = target: T1, 5HT2C receptor (Rattus norvegicus, UniProt P08909); assay: 5HT2C receptor binding assay ([3H]-mesulergine, rat striatum membrane); details: for affinity with 5HT2C (in words): summary of in vitro assay; for inhibition at 10 µM: test compound final concentration 10^−5 M, [3H]-mesulergine, rat striatum membrane, read-out: 5HT2C Inhibition rate (%)
T1 construct: from tissue; host or cells: rat brain striatum
T1 sequence (P08909 33-460): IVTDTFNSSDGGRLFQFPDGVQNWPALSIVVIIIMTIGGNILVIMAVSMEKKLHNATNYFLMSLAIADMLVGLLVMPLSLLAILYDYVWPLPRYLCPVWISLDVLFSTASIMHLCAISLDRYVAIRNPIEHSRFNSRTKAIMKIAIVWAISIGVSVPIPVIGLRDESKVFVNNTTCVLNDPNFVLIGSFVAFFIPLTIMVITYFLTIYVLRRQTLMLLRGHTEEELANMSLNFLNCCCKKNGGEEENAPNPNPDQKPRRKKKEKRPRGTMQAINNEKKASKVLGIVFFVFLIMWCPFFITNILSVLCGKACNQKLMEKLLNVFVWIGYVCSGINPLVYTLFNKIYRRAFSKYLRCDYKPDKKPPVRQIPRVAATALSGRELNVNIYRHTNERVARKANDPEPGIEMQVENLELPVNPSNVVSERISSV
Protocol: Preparation of 5HT2C Membrane
Rats were decapitated on ice. […] Centrifugation was conducted.
as §1

[3] = target: T2, 5HT1A receptor (Rattus norvegicus, UniProt P19327); assay: 5HT1A receptor binding assay (3H-8-OH-DPAT, rat striatum membrane); details: for affinity with 5HT1A (in words): summary of in vitro assay; for inhibition at 10 µM: test compound final concentration 10^−5 M, 3H-8-OH-DPAT, rat striatum membrane, read-out: 5HT1A Inhibition rate (%)
T2 construct: Rats were decapitated on ice; from tissue; host or cells: rat brain striatum
T2 sequence (P19327 1-422): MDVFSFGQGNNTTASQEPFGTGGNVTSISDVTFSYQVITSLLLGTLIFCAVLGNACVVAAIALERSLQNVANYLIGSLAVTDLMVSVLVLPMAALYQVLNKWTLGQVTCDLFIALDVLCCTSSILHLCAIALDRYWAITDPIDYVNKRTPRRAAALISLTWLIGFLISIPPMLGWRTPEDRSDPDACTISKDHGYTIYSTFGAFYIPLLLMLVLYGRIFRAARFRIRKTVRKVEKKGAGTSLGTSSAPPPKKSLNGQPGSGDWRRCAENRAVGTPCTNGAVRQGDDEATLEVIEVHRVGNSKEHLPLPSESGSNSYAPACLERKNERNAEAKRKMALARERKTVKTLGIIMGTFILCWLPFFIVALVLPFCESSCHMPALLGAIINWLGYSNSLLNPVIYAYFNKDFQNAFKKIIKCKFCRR
Protocol: Preparation of 5HT1A Membrane
Rats were decapitated on ice. […] Incubation at 37° C. was conducted for 10 min. […] Centrifugation was conducted at 12000 rpm, 4° C. for 20 min. […] Centrifugation was conducted and repeated 3 times.
as §1

[4] = test system: α1 norepinephrine receptor; assay: α1 norepinephrine receptor binding assay (3H-prazosin, rat cortex membrane); details: for affinity with α1 (in words): summary of in vitro assay; for α1 Inhibition rate (%): test compound final concentration 10^−5 M, 3H-prazosin, rat cortex membrane
From the text: Preparation of Receptor Membrane of Norepinephrine
α1 Norepinephrine Receptor Binding Assay

[5] = target: Histamine H1 receptor (Rattus norvegicus, UniProt P31390); assay: Histamine H1 receptor binding assay (3H-pyrilamine, rat cerebellum membrane); details: for inhibition at 10 µM: read-out: H1 Inhibition rate (%); for affinity with H1 (in words): summary of in vitro assay
Protocol: The supernatant was discarded to give pellets, and homogenate F was added again to the pellets for washing. Centrifugation was conducted and repeated 3 times.
(2) 100 μL of membrane preparation was added into each reaction tube.

[6] = target: 5HT2A receptor (Rattus norvegicus, UniProt P14842); assay: 5HT2A receptor binding assay ([3H]-Ketanserin, rat striatum membrane); details: for inhibition at 10 µM: read-out: 5HT2A Inhibition rate (%); for affinity with 5HT2A (in words): summary of in vitro assay
[7] = target: T3, D3 receptor (Homo sapiens, UniProt P35462); assay: D3 receptor assay ([3H]-Spiperone, HEK-293 cells); assay type: binding; details: for affinity with D3 (in words): summary of in vitro assay; for inhibition at 10 µM: test compound final concentration 10 μmol/L, [3H]-Spiperone, HEK-293 cells, read-out: D3 Inhibition rate (%)
T3 construct: expressed in transfected cells; host or cells: HEK-293
Protocol: Then the cells were centrifuged at 1000 rpm for 5 min, the supernatant was discarded, and the cell pellets was collected and stored in a −20° C. fridge for reservation. It was re-suspended with Tris-Cl (pH 7.4) when the assay was performed.
Tris was divided into aliquots by Genetimes Technology Inc.
Competitive binding test for receptors: 20 μl of each of the test compounds and 20 μl of the radioactive ligand together with 160 μl of the receptor proteins were added into the reaction tubes, and the final concentrations of the test compound and the positive drug were all 10 μmol/L. After 50 min of incubation in 30° C. water bath, the tubes were immediately moved to ice bath to terminate the reactions. GF/C glass fiber filter papers were used for rapid sucking filtration on a Millipore cell sample collector, 3 ml of elution buffer (50 mM Tris-HCl, PH 7.4) was applied for 3 times, and microwave was applied for 4-5 min for drying. The filter paper was moved into 0.5 ml centrifuge tube, and 500 μl of liposoluble scintillation cocktail was added. The tubes were allowed to stand still for over 30 min in dark, and the intensities of radioactivity were measured by a counter.

Histamine H1 receptor, sequence (P31390 whole entry): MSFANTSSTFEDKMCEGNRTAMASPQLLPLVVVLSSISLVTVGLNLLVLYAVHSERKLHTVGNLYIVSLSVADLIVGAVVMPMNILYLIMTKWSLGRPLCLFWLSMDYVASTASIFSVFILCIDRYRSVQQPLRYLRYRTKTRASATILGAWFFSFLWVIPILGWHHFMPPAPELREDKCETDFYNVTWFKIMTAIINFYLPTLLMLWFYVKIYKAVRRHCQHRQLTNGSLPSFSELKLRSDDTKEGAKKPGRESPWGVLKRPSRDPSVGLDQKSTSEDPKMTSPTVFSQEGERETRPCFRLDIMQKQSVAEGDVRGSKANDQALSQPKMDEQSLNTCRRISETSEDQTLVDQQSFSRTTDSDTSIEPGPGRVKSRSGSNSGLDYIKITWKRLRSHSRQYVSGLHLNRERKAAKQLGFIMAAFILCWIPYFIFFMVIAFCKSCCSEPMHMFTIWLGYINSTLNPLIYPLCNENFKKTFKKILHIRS
T3 sequence (P35462 whole entry): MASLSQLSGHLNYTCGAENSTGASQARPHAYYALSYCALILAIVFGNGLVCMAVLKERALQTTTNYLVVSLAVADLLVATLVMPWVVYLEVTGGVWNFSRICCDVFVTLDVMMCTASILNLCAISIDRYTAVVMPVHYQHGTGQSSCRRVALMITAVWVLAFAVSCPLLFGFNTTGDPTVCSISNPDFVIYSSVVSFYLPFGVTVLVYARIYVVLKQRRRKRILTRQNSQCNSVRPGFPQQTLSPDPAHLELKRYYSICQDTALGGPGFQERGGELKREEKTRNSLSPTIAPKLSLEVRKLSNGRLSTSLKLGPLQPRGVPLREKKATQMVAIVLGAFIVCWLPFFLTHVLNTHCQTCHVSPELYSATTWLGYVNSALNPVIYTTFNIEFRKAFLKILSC
5HT2A receptor, sequence (P14842 whole entry): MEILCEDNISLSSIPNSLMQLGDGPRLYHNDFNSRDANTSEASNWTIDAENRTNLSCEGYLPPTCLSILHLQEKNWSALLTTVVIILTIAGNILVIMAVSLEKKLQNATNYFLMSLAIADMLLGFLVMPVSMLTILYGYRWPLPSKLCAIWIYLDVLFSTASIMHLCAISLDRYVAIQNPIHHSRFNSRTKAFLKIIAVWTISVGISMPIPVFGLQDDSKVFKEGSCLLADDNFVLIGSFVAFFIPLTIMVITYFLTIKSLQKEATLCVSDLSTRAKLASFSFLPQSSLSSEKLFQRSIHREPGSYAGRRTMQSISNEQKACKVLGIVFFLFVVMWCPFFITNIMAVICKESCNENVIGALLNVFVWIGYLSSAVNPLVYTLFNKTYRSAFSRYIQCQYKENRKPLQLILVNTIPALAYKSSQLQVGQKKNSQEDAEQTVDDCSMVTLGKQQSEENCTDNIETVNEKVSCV

SMILES	affinity with D2 (in words) [1]	D2 Inhibition rate (%) [1] [%]	affinity with 5HT2C (in words) [2]	inhibition at 10 µM [2] [%]	affinity with 5HT1A (in words) [3]	inhibition at 10 µM [3] [%]	affinity with α1 (in words) [4]	α1 Inhibition rate (%) [4] [%]	inhibition at 10 µM [5] [%]	affinity with H1 (in words) [5]	inhibition at 10 µM [6] [%]	affinity with 5HT2A (in words) [6]	affinity with D3 (in words) [7]	inhibition at 10 µM [7] [%]
O=C1CCc2cc(C(O)CCCN3CCC(c4noc5cc(F)ccc45)CC3)cc3c2N1CC3 (centres unmarked) [Compound 16]	high affinities	98.34	low affinities	55.4	high affinities	99.4	low affinities	51.19	38.8	low affinities	98.8	high affinities	high affinities	98.3
O=C(CCCN1CCC(c2noc3cc(F)ccc23)CC1)c1cc2c3c(c1F)CCN3C(=O)CC2 [Compound 21]		92.01		67.9		93.3		46.78	54.3		91.1			90.1
O=C1CCc2cc(C(O)CCN3CCC(c4noc5cc(F)ccc45)CC3)cc3c2N1CCC3 (centres unmarked) [Compound 3]		97.67		61.6		91.6		51.42	42.5		92.5			93.9
O=C(CN1CCC(c2noc3cc(F)ccc23)CC1)c1cc2c3c(c1)CCN3C(=O)CC2 [Compound 11]		55.89		84.6		58.6		52.42	84.9		74.9			83.5
O=C1CCc2cc(CCCCN3CCC(c4noc5cc(F)ccc45)CC3)cc3c2N1CC3 [Compound 17]	high affinities	99.17	low affinities	51.1	high affinities	99.1	low affinities	46.62	35.4	low affinities	99.4	high affinities	high affinities	96.2
O=C1CCc2cc(CCCN3CCC(c4noc5cc(F)ccc45)CC3)cc3c2N1CCC3 [Compound 4]		94.22		60		88		60.91	44		94			92.5
CC1CC(=O)N2CCCc3cc(CCCCN4CCC(c5noc6cc(F)ccc56)CC4)cc1c32 (centres unmarked) [Compound 10]		85.88		55.9		82.9		46.48	43.9		83.5			80.2
O=C1CCc2cc(C(O)CCN3CCC(c4noc5cc(F)ccc45)CC3)cc3c2N1CC3 (centres unmarked) [Compound 13]	high affinities	96.83	low affinities	53.6	high affinities	93.6	low affinities	53.75	46.9	low affinities	96.9	high affinities	high affinities	94.4
O=C(CCCCN1CCC(c2noc3cc(F)ccc23)CC1)c1cc2c3c(c1)CCN3C(=O)CC2 [Compound 18]		88.10		54.3		84.3		56.48	37.8		87.8			98.1
O=C1CCc2cc(CCCN3CCC(c4noc5cc(F)ccc45)CC3)cc3c2N1CC3 [Compound 14]	high affinities	94.65	low affinities	57	high affinities	87	low affinities	50.91	43.9	low affinities	93.9	high affinities	high affinities	96.9
CC1CC(=O)N2CCCc3cc(C(=O)CCCN4CCC(c5noc6cc(F)ccc56)CC4)cc1c32 (centres unmarked) [Compound 9]		91.76		54		84		66.62	46		90.2			86
O=C1CCc2cc(CCCCCN3CCC(c4noc5cc(F)ccc45)CC3)cc3c2N1CC3 [Compound 20]		83.23		53		83		68.86	49.3		80.3			93.2
O=C(CCCN1CCC(c2noc3cc(F)ccc23)CC1)c1cc2c3c(c1F)CCC(=O)N3CC2 [Compound 22]		93.12		76.3		91.2		53.46	45.2		90.2			91.2
O=C(CCCCN1CCC(c2noc3cc(F)ccc23)CC1)c1cc2c3c(c1)CCC(=O)N3CCC2 [Compound 8]		90.17		59.5		89.5		41.19	45.5		93			72.4
O=C1CCc2cc(C(O)CCCCN3CCC(c4noc5cc(F)ccc45)CC3)cc3c2N1CC3 (centres unmarked) [Compound 19]		81.45		57.1		87.1		52.47	41.1		81.1			91.5
O=C(CN1CCC(c2noc3cc(F)ccc23)CC1)c1cc2c3c(c1)CCC(=O)N3CCC2 [Compound 1]		45.89		84.6		54.6		68.75	84.9		84.9			60.9
